Source: publication PMC7819857, “Identification of Inhibitors of Integrin Cytoplasmic Domain Interactions With Syk” (Frontiers in Immunology, 2021)

Columns and labels:
[1] = biological target: T1, GST-free Syk(6-370) (Homo sapiens, UniProt P43405); assay: Thermal denaturation assay (SYPRO orange); assay type: binding; details: Syk(6-370) 2 µM, dose-dependent
T1 construct: Syk 6-370 (GST tag removed by thrombin cleavage) was used; GST (N, cleaved yes); made in house; host or cells: E. coli BL21(DE3)
Protocol: In this assay, Syk 6-370 (GST tag removed by thrombin cleavage) was used. Thrombin (GE Healthcare cat#270846, reconstituted in PBS to 1 unit/ul) was applied to the GST-Syk 6-370 protein bound to the Glutathione Sepharose beads. The GST-tag was cleaved with 20 unit/1 ml of protein-GST beads in PBS overnight at room temperature. After chromatography and additional cleaning on GST-beads, the purified protein was verified by SDS-PAGE. For thermal denaturation experiments, GST-free Syk(6-370) was used at a final concentration of 2 µM and SYPRO orange (Thermo Scientific, cat# S6650) at a 0.08% (v/v) dilution (from a 5000x stock). Compounds were used at indicated concentrations. Numerous reaction buffers were initially screened, and a final buffer containing 25 mM HEPES (pH 7.5) with 100 mM NaCl was used. Assays were performed in 20 µl volumes, in triplicate, in 384-well plates (Applied Biosystems MicroAmp 384-well clear optical reaction plate, catalogue #4483285). Plates were sealed with Applied Biosystems Optical Adhesive Cover (cat#4360954) and centrifuged for 2 min at 800 × g at room temperature. Thermal denaturation was measured on a Quant Studio 6 Flex Real-time PCR system (Applied Biosystems). […]

[2] = system: Syk phosphorylation in THP-1 cells; assay: Integrin α4β1-induced phosphorylation of Syk in THP-1 cells plated on CS-1; assay type: cell-based, human
Protocol: Compound loading of cells was facilitated by glycerol shock ([32], [33]). Methods were first optimized with the cell-impermeable fluorophore Sulfo-Cy5 (see Supplemental Figure S5 ). For analysis of compound inhibition of integrin signaling, 3 × 10^6 THP-1 cells were incubated in 200 ul serum-free RPMI containing 15% glycerol and ceftazidime (at indicated concentrations) for 1 h at 20°C. RPMI (3 ml, room temperature) containing ceftazidime (at indicated concentrations) was added to the cells to dilute the glycerol, and the cells were further incubated for 10 min (room temperature). Cells were then plated onto CS-1-BSA-coated plates for 15 min at 37°C, lysed in RIPA buffer (1% Triton X-100, 50 mM Tris-HCl pH 7.2, 150 mM NaCl, 0.25% NaDOC, 0.05% SDS, 2 mM PMSF, 1 mM NaF, 1 mM Na3VO4, and protease inhibitor cocktail) (AEBSF, Aprotinin, E-64, Bestatin, Leupeptin and Pepstatin; VWR Cat#97063-010), and the lysates were subjected to Western blot as described below.
Syk phosphorylation assays were performed by immobilizing vascular cell adhesion molecule-1 (VCAM)-1 (3 ug/ml), CS-1-BSA (10 ug/ml), or specific monoclonal antibodies (anti-FcγRI mAb 276426, anti-α4β1 mAb 19H8, anti-β2 mAb 76C3, anti-αvβ3 mAb LM609 all at 5 ug/ml) overnight at 4°C in Tris-HCl pH 7.5, 150 mM NaCl, in 6-well plates (non-tissue culture treated, Becton Dickenson, cat# BD351146). […] After electrophoresis, proteins were transferred to nitrocellulose for 1 h 100 V room temperature, blocked in 5% non-fat milk in TBS-T, and probed with the indicated primary antibody at 1:1,000 overnight at 4°C, followed by species-appropriate HRP secondary antibody (Southern Biotech) at 1:5,000 (30 min at room temperature), and detected using Pierce West Pico (Thermo Scientific cat# 34580). […]
Figure 4 Ceftazidime inhibition of integrin signaling. (A) Dose-response curves comparing ceftazidime antagonist activity against integrin β1A, β2, and β3 cytoplasmic domains binding to Syk as measured in AlphaScreen assays. […] Data are expressed as mean fluorescence (Fl520) ± the range from duplicate determinations. […]

effect on melting temperature (Tm) of Syk(6-370) [1]: decreased
SMILES: CC(C)(O/N=C(\C(=O)N[C@@H]1C(=O)N2C(C(=O)[O-])=C(C[n+]3ccccc3)CS[C@H]12)c1csc(N)n1)C(=O)O [ceftazidime]
integrin α4β1 induced phosphorylation of Syk ([2]; 100 µM loaded by glycerol shock, plated on CS-1, immunoprecipitation and western blot): inhibited
α4β1-induced phosphorylation of Syk (pY352) ([2]; ceftazidime loaded by glycerol shock, indicated doses, cells plated on CS-1): inhibited
α4β1 signaling through Syk ([2]; drug simply added to THP-1 cells, no glycerol loading): negative
